{
  "source": "patent US20050175550A1",
  "about": "“Compositions for oral use” (priority 2000, published 2005)",
  "type_in_all_cases": "cell-based",
  "key": {"[1]": {"system": "Escherichia coli BL 21", "assay": "Antibacterial test, propagation by turbidity in broth (Example 1)", "conditions": "medium containing 0.1 mM or 1.0 mM trifluoromethionine, FIG. 6"}, "[2]": {"system": "Streptococcus agalactiae ATCC13813", "assay": "MIC by agar plate dilution method on standard strains (Example 3)", "description": "(§1) Drug solutions at a concentration 10 times as high as the maximum applicable concentration were prepared as original solutions of test drugs given in Table 2 (as to solvents used for this purpose, reference should be made also to Table 2). Serial two-fold dilution series of the original solutions were prepared at desired stages, and 1 ml each of the diluted drug solutions was added to 9 ml of media given in Table 3 to prepare drug plates. […] • 1) Bacterial solutions stocked at −80° C. were inoculated on agar media (as to media used, reference should be made to Table 3), and then incubated at 37° C. overnight. When desired, subculturing was conducted once more on the same agar media (by overnight incubation at 37° C.). • 2) Colonies growing on the agar media were sampled by a platinum loop, suspended in liquid media (reference should be made to Table 3) and statically incubated at 37° C. for 18 hours (preculturing). • 3) Preculturing was continued up to McFarland 0.5 (McFarland 0.5=about 10^8 CFU/ml), and then the culture broths were diluted with Muellar Hinton Broth to make 10^6 CFU/ml. 5 μl each of the diluted solutions were inoculated on the above-mentioned drug plates by an inoculator Microplanter. […] Thus, bacterial solutions at about 10^8 CFU/ml can be easily prepared by use of McFarland 0.5. Bacterial solutions at such a turbidity are commercially available, but can be easily prepared."}, "[3]": {"system": "Streptococcus pneumoniae ATCC49619", "assay": "MIC by agar plate dilution method on standard strains (Example 3)", "description": "as §1"}, "[4]": {"system": "Escherichia coli ATCC25922", "assay": "MIC by agar plate dilution method on standard strains (Example 3)", "description": "as §1"}, "[5]": {"system": "Bacillus subtilis ATCC6633", "assay": "MIC by agar plate dilution method on standard strains (Example 3)", "description": "as §1"}, "[6]": {"system": "Streptococcus pyogenes ATCC12353", "assay": "MIC by agar plate dilution method on standard strains (Example 3)", "description": "as §1"}, "[7]": {"system": "Escherichia coli ATCC35218", "assay": "MIC by agar plate dilution method on standard strains (Example 3)", "description": "as §1"}, "[8]": {"system": "Haemophilus influenzae ATCC33533", "assay": "MIC by agar plate dilution method on standard strains (Example 3)", "description": "as §1"}, "[9]": {"system": "Enterococcus faecalis ATCC29247", "assay": "MIC by agar plate dilution method on standard strains (Example 3)", "description": "as §1"}, "[10]": {"system": "Streptococcus pneumoniae ATCC6303", "assay": "MIC by agar plate dilution method on standard strains (Example 3)", "description": "as §1"}, "[11]": {"system": "Moraxella (Branhamella) catarrhalis ATCC25238", "assay": "MIC by agar plate dilution method on standard strains (Example 3)", "description": "as §1"}, "[12]": {"system": "Klebsiella pneumoniae ATCC700603", "assay": "MIC by agar plate dilution method on standard strains (Example 3)", "description": "as §1"}, "[13]": {"system": "Streptococcus pyogenes ATCC12344", "assay": "MIC by agar plate dilution method on standard strains (Example 3)", "description": "as §1"}, "[14]": {"system": "Streptococcus pneumoniae ATCC6302", "assay": "MIC by agar plate dilution method on standard strains (Example 3)", "description": "as §1"}, "[15]": {"system": "Staphylococcus aureus ATCC29247", "assay": "MIC by agar plate dilution method on standard strains (Example 3)", "description": "as §1"}, "[16]": {"system": "Streptococcus pneumoniae ATCC6306", "assay": "MIC by agar plate dilution method on standard strains (Example 3)", "description": "as §1"}, "[17]": {"system": "Streptococcus pyogenes ATCC12385", "assay": "MIC by agar plate dilution method on standard strains (Example 3)", "description": "as §1"}, "[18]": {"system": "Moraxella (Branhamella) catarrhalis ATCC43617", "assay": "MIC by agar plate dilution method on standard strains (Example 3)", "description": "as §1"}, "[19]": {"system": "Micrococcus luteus ATCC9341", "assay": "MIC by agar plate dilution method on standard strains (Example 3)", "description": "as §1"}, "[20]": {"system": "Pseudomonas aeruginosa ATCC27853", "assay": "MIC by agar plate dilution method on standard strains (Example 3)", "description": "as §1"}, "[21]": {"system": "Haemophilus influenzae ATCC33391", "assay": "MIC by agar plate dilution method on standard strains (Example 3)", "description": "as §1"}, "[22]": {"system": "Haemophilus influenzae ATCC49247", "assay": "MIC by agar plate dilution method on standard strains (Example 3)", "description": "as §1"}, "[23]": {"system": "Haemophilus influenzae ATCC49766", "assay": "MIC by agar plate dilution method on standard strains (Example 3)", "description": "as §1"}, "[24]": {"system": "Moraxella (Branhamella) catarrhalis ATCC25240", "assay": "MIC by agar plate dilution method on standard strains (Example 3)", "description": "as §1"}, "[25]": {"system": "Serratia marcescens ATCC13880", "assay": "MIC by agar plate dilution method on standard strains (Example 3)", "description": "as §1"}, "[26]": {"system": "Staphylococcus aureus ATCC6538P", "assay": "MIC by agar plate dilution method on standard strains (Example 3)", "description": "as §1"}, "[27]": {"system": "Enterococcus faecium ATCC19434", "assay": "MIC by agar plate dilution method on standard strains (Example 3)", "description": "as §1"}, "[28]": {"system": "Streptococcus pneumoniae ATCC6301", "assay": "MIC by agar plate dilution method on standard strains (Example 3)", "description": "as §1"}},
  "data": [
    {"smiles": "N[C@@H](CCSC(F)(F)F)C(=O)O", "note": "[TFM, Trifluoromethionine]", "values": [
      {"measurement": "antibacterial effect (propagation of bacteria, absorbance at 550 nm)", "setting": "[1]", "value": "failed to show a significant antibacterial effect"},
      {"measurement": "MIC", "setting": "[2]", "value": ">400", "unit": "µg/mL"},
      {"measurement": "MIC", "setting": "[3]", "value": ">400", "unit": "µg/mL"},
      {"measurement": "MIC", "setting": "[4]", "value": ">400", "unit": "µg/mL"},
      {"measurement": "MIC", "setting": "[5]", "value": ">400", "unit": "µg/mL"},
      {"measurement": "MIC", "setting": "[6]", "value": ">400", "unit": "µg/mL"},
      {"measurement": "MIC", "setting": "[7]", "value": ">400", "unit": "µg/mL"},
      {"measurement": "MIC", "setting": "[8]", "value": 100, "unit": "µg/mL"},
      {"measurement": "MIC", "setting": "[9]", "value": ">400", "unit": "µg/mL"},
      {"measurement": "MIC", "setting": "[10]", "value": ">400", "unit": "µg/mL"},
      {"measurement": "MIC", "setting": "[11]", "value": 100, "unit": "µg/mL"},
      {"measurement": "MIC", "setting": "[12]", "value": ">400", "unit": "µg/mL"},
      {"measurement": "MIC", "setting": "[13]", "value": ">400", "unit": "µg/mL"},
      {"measurement": "MIC", "setting": "[14]", "value": ">400", "unit": "µg/mL"},
      {"measurement": "MIC", "setting": "[15]", "value": ">400", "unit": "µg/mL"},
      {"measurement": "MIC", "setting": "[16]", "value": ">400", "unit": "µg/mL"},
      {"measurement": "MIC", "setting": "[17]", "value": ">400", "unit": "µg/mL"},
      {"measurement": "MIC", "setting": "[18]", "value": 100, "unit": "µg/mL"},
      {"measurement": "MIC", "setting": "[19]", "value": ">400", "unit": "µg/mL"},
      {"measurement": "MIC", "setting": "[20]", "value": ">400", "unit": "µg/mL"},
      {"measurement": "MIC", "setting": "[21]", "value": 50, "unit": "µg/mL"},
      {"measurement": "MIC", "setting": "[22]", "value": 50, "unit": "µg/mL"},
      {"measurement": "MIC", "setting": "[23]", "value": 25, "unit": "µg/mL"},
      {"measurement": "MIC", "setting": "[24]", "value": 25, "unit": "µg/mL"},
      {"measurement": "MIC", "setting": "[25]", "value": ">400", "unit": "µg/mL"},
      {"measurement": "MIC", "setting": "[26]", "value": ">400", "unit": "µg/mL"},
      {"measurement": "MIC", "setting": "[27]", "value": ">400", "unit": "µg/mL"},
      {"measurement": "MIC", "setting": "[28]", "value": ">400", "unit": "µg/mL"}
    ]}
  ]
}
